# Assay results published in patent publication US20210228511A1, “NEURONAL AGONISTS AND ISOTONIC OR HYPERTONIC SALINE FOR TREATING RESPIRATORY DISEASES” (University of Saskatchewan, priority 2020, published 2021).
# Where two headings read alike, the source gives them in different places.
# Legend:
# [1] = tested on: ex vivo swine trachea preparations; assay: Mucociliary clearance assay, tantalum disk movement on excised swine trachea
# isolated swine trachea = assay: ASL layer height by synchrotron phase contrast imaging, isolated wild-type swine trachea (ex vivo)
# airway submucosal glands = assay: Fluid secretion assay of airway submucosal glands (droplets under oil); settings: WT swine, FIG. 12
# Method: To confirm that both exemplary neuronal agonists capsaicin and menthol stimulate active fluid secretion by airway submucosal glands in WT swine, the effect of exemplary neuronal agonists menthol and capsaicin was on fluid secretion rate was measured using the secretion assay as described elsewhere^21. The mucosal layer from trachea or primary bronchus, with underlying glands, was dissected from the cartilage. A piece of tissue of about 1 cm^2 was pinned mucosal side up and mounted in a 35-mm-diameter plastic Petri dish lined with Sylgard (Dow Corning Corp). The serosal side was immersed in a bathing solution ( 1 ml volume), and the mucosa was in air. Before experimentation, the mucosal surface was gently cleaned and blotted dry with cotton swabs and further dried with a stream of air, after water-saturated mineral oil was placed on the surface.
# live wild-type swine = assay: ASL layer height by synchrotron phase contrast imaging, live wild-type swine; settings: added alone to HTS, WT swine in vivo, lesser extent than with capsaicin, FIG. 11
# [2] = ex vivo wild-type trachea, HTS 7% w/v NaCl, 18 min
smiles,measurement,setting,value
"C=C(C)[C@@H]1CC[C@@H](C)C[C@H]1O [(−)-isopulegol, (1R,2S,5R)-2-Isopropenyl-5-methylcyclohexanol]",duration of HTS-triggered mucociliary clearance,"[1]; wild-type swine ex vivo, added to HTS, measured at 0, 90 and 150 min, FIG. 15",extended the duration of HTS-triggered mucociliary clearance
O=C(O)c1ccc(/C=C2\SC(=S)N(c3cccc(C(F)(F)F)c3)C2=O)cc1 [CFTRinh172],"effect on HTS-triggered ASL secretion, time course","isolated swine trachea; wild-type swine trachea preparations ex vivo, FIG. 8",decreases the effect of HTS on ASL secretion
Ic1ccccc1CN[C@@H]1C2CCN(CC2)[C@@H]1C(c1ccccc1)c1ccccc1 [L-703606],effect on HTS-triggered ASL layer height increase,isolated swine trachea; [2],significantly reduced
same,effect on ASL layer height in ITS-treated preparations,"isolated swine trachea; ex vivo wild-type trachea, ITS 0.9% w/v NaCl, 18 min",had no effect
same,effect on response to HTS treatment in preparations incubated with CFTRinh172,"isolated swine trachea; ex vivo, CFTRinh172 100 μM (model of airways without CFTR function), 18 min",unaffected
N=C(N)NC(=O)c1nc(Cl)c(N)nc1N [amiloride],effect on HTS-triggered ASL layer height increase,isolated swine trachea; [2],did not affect HTS treatment
CN1[C@@H]2CC[C@H]1C[C@@H](OC(=O)C(CO)c1ccccc1)C2 (stereo partly shown) [atropine],effect on ASL layer height in ITS-treated preparations,isolated swine trachea,had no effect
same,effect on HTS-triggered ASL layer height increase,isolated swine trachea,reduced HTS-triggered ASL secretion
same,effect on ITS-treated preparations incubated with CFTRinh172,isolated swine trachea,had no effect
same,effect on response to HTS treatment in preparations incubated with CFTRinh172,isolated swine trachea,reduced the response to HTS treatment
"COc1cc(CNC(=O)CCCC/C=C/C(C)C)ccc1O [capsaicin, (6E)-N-[(4-Hydroxy-3-methoxyphenyl)methyl]-8-methylnon-6-enamide]",ASL secretion by the submucosal glands,airway submucosal glands,triggers significant ASL secretion
same,HTS-triggered increase in mucociliary clearance,"[1]; WT swine airways, added to HTS, FIG. 13",augmented
same,ITS-triggered increase in mucociliary clearance,"[1]; WT swine airways, added to ITS, FIG. 13",augmented
"CC1CCC(C(C)C)C(O)C1 (stereo not shown) [menthol, 5-Methyl-2-(propan-2-yl)cyclohexan-1-ol]",duration of treatment,live wild-type swine,increase the intensity and duration of treatment
same,intensity of treatment,live wild-type swine,increase the intensity and duration of treatment
same,ASL secretion by the submucosal glands,airway submucosal glands,triggers significant ASL secretion
